# Measured values taken from US20080293931A1, “Methods and compositions for the removal of nucleic acid amplification inhibitors” (priority 2006, published 2008).
# Several values for one entry are separate records, joined by “and”; a condition that tells them apart may be missing. Equal entries are not always repeated. Structures can show the parent of a compound that is named as a salt. Where two headings read alike, the source gives them in different places.
# Columns and labels:
# [1] = Humic acid (HA) removal from aqueous commercial HA solutions by PIR compounds, fluorimetric HA determination; conditions: for performance as PIR compound (in words): commercial humic acid solutions
# Protocol: Humic solutions were in 1×TAE buffer at RT with pH˜7. […] Samples from PIR experiments utilizing these materials were diluted, using 1×TAE, to concentrations falling within the linear response region representative of the humic material used.
# In this study, when samples were interrogated for humic acid concentrations via fluorimetry, known concentrations of commercial humic acids were compared to known concentrations of humic standards.
# FIG. 1 compares the HA removal from samples containing DNA of interest to the molar concentration of varied PIR compounds by plotting an HA reduction factor as the initial [HA] divided by [HA] following treatment with PIR compounds. The commercially available PIR kit, from Mo-BIO, is placed on FIG. 1 for comparison and was arbitrarily assigned a molar concentration of 1 for convenience. […] The data shown in FIG. 1 were generated from varied initial [HA], ranging from ˜5,000 to 300,000 mg/L HA. These varied initial [HA] values represent a “worst case” scenario and these are in comparison to initial [HA] in extractions from problematic soils generating humic acid concentrations typically less than 5,000 mg/L.
# FIG. 2 plots the data from the same experiments represented in FIG. 1, but applying a different approach for data metric. FIG. 2 plots a dimensionless HA removal efficiency (or efficacy) value versus the decade of dilution necessary for successful PCR. The efficiency of HA removal is defined in equation 1 as the initial [HA] minus the final [HA] divided by the initial [HA]. This is essentially a percent removal approach.
# Efficiency=[HA]i−[HA]f/[HA]; (1)
# To further discriminate efficiency values greater than 0.99, the efficiency was subtracted from the integer value of 1, and the −log was taken of 1-efficiency to generate a non-negative value indicative of HA removal efficiency with greater level of discrimination and resolution of values with high degrees of HA removal. This is described by equation 2.
# [2] = Stability of PIR compound in aqueous solution
# E. coli DNA = experiment: PCR of seeded E. coli DNA after PIR treatment of aqueous HA samples (decade of dilution necessary for successful PCR); conditions: PIR 1 M; aqueous humic samples seeded with E. coli DNA; HAi avg 6,500-12,300 depending on compound (Table 6 c2)
# Protocol: Consideration of dilution factors for successful PCR must also be reviewed. In untreated soil extracts containing DNA of interest, successful PCR of the extracted DNA may occur when the polymerase inhibitor is diluted sufficiently such that inhibition is suppressed and PCR may occur. Typical values for the dilution decade at which PCR is successful in samples containing humic materials and DNA of interest are often around decade four (1×10^4). Accordingly, a dilution factor of 10,000 would be necessary for successful PCR in a typical soil extract/sample. This magnitude of dilution may also impact PCR sensitivity for DNA/species already present at low concentrations and result in not identifying an organism that was present in the original sample extract.
# Using this approach for presenting the HA removal data allows for the determination of a PIR compound's effectiveness for HA removal (ε) and compatibility for application in PCR systems via dilution data for PCR.
# [3] = Humic acid removal from soil extracts (Los Alamos Airport Soil) by PIR compounds; conditions: 100 mM PIR, HA 7,600 mg/L
# Protocol: Aqueous samples of humic solutions were interrogated via fluorimetry on a Jobin Jvon Spex Fluorolog II with an excitation wavelength of 471 nm, an emission wavelength of 529 nm, with slits @ 10 nm bandpass, pmt bias of 950V, 1 second integration per reading and 10 readings per sample or <0.1% RSD per sample. Humic solutions were in 1×TAE buffer at RT with pH˜7. […] Samples from PIR experiments utilizing these materials were diluted, using 1×TAE, to concentrations falling within the linear response region representative of the humic material used.
# seeded E. coli DNA = experiment: PCR after PIR treatment of soil extracts (dilution to achieve PCR); conditions: 100 mM PIR; soil extracts (Los Alamos Airport Soil)
# B. anthracis Sterne DNA = conditions: PIR (thiamine) treated; for B. anthracis per rxn: at 1st positive dilution; for 1st DNA dilution with positive PCR: spiked with B. anthracis Sterne DNA
# [4] = PIR 1 M, aqueous humic samples seeded with E. coli DNA, HAi avg 6,500-12,300 depending on compound (Table 6 c2)
smiles,measurement,setting,value
"O=C(C[n+]1ccsc1)c1ccc([N+](=O)[O-])cc1.[Br-] [PTB-NO2, 4-Nitro-Phenacyl Thiazolium Bromide]",performance as PIR compound (in words),[1],did not perform well
same,performance as PIR compound (in words),[1]; listed as PTB-N,poor performance
same,stability in aqueous solutions,[2],not stable
same,time to orange/red precipitate following dissolution,[2]; aqueous solutions,approximately 1 hour
"Cc1ncc(C[n+]2csc(CCO)c2C)c(N)n1 [THI, Thiamine Hydrochloride]","Average Efficiency, ε",[1]; [4],2.13
same,Avg Reduction Factor,[1]; [4],258
same,Typical dilution decade for PCR,E. coli DNA,0
same,range of dilutions (dilution decade for PCR),E. coli DNA,0-3
same,average efficiency values,[3],1.4
same,average reduction factors,[3],45
same,"dilution decade at which PCR is achieved, on average",seeded E. coli DNA,1.8
same,B. anthracis per rxn,B. anthracis Sterne DNA; soil “A”,~10^4 cell equivalents
same,1st DNA dilution with positive PCR,B. anthracis Sterne DNA; soil “A”,10^0
same,B. anthracis per rxn,B. anthracis Sterne DNA; soil “B”,~10^4 cell equivalents
same,1st DNA dilution with positive PCR,B. anthracis Sterne DNA; soil “B”,10^0
same,B. anthracis per rxn,B. anthracis Sterne DNA; soil “C”,~10^4 cell equivalents
same,1st DNA dilution with positive PCR,B. anthracis Sterne DNA; soil “C”,10^0
same,improvement of purity of DNA samples,bacterial 16S rDNA,two orders of magnitude
same,increase in purity of soil DNA extract,bacterial 16S rDNA,≥ 10 fold
same,1st DNA dilution with positive PCR,bacterial 16S rDNA; Hydrochloride,10^−2 and 10^−1
same,DNA dilution with positive PCR,bacterial 16S rDNA; Hydrochloride,10^0 and 10^−1
